For 15 compounds, IC50 results are on record in patent US10513521B2, “Compositions and methods for inhibiting BMP” (The Brigham and Women's Hospital, Inc., priority 2014, dated 2019).

Molecules are shown by their SMILES. Some results are limits rather than exact numbers.

One assay deals with ALK6 (Homo sapiens, UniProt O00238). Put plainly: TR-FRET enzymatic ALK kinase assay, ALK6. In general terms: Time-resolved FRET reads energy transfer from a long-lived donor to a nearby acceptor.
Another assay has as its target T1, ALK2 (Homo sapiens, UniProt Q04771).
T1 sequence (Q04771 21-509): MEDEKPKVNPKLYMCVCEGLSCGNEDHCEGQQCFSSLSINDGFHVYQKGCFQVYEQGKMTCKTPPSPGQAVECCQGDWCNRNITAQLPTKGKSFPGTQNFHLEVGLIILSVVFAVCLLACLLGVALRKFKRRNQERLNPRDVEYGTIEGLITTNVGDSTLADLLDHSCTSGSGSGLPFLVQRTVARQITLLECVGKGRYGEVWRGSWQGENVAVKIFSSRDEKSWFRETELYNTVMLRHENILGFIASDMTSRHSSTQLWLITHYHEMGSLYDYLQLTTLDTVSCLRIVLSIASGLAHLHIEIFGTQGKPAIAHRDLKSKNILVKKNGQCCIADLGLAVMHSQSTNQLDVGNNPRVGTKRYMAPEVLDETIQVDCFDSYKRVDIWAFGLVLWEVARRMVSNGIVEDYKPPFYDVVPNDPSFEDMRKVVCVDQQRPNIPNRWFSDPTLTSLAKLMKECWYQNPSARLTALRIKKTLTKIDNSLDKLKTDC
Nature of the assay: TR-FRET enzymatic ALK kinase assay, ALK2.

For a further assay, the target named is T2, ALK4 (Homo sapiens, UniProt P36896).
T2 sequence (P36896 24-505): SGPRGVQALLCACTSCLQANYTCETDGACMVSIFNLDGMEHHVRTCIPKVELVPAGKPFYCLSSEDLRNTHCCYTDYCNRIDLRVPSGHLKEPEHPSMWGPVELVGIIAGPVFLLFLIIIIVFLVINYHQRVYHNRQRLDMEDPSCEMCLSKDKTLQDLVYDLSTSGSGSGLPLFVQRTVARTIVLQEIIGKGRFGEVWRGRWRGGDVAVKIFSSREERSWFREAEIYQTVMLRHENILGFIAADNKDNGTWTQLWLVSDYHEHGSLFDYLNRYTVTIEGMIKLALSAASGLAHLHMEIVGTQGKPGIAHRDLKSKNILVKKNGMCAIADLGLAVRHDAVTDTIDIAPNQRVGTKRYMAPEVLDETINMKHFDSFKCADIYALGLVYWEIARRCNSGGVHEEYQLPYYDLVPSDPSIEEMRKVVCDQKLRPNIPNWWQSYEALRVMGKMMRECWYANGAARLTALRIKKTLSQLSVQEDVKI
Put plainly: TR-FRET enzymatic ALK kinase assay, ALK4.

For another assay, the target named is ALK3 (Homo sapiens, UniProt P36894). Nature of the assay: TR-FRET enzymatic ALK kinase assay, ALK3.
The target of the next assay is ALK1 (Homo sapiens, UniProt P37023). Put plainly: TR-FRET enzymatic ALK kinase assay, ALK1.
For another assay, the target named is T3, ALK5 (Homo sapiens, UniProt P36897).
T3 sequence (P36897 34-503): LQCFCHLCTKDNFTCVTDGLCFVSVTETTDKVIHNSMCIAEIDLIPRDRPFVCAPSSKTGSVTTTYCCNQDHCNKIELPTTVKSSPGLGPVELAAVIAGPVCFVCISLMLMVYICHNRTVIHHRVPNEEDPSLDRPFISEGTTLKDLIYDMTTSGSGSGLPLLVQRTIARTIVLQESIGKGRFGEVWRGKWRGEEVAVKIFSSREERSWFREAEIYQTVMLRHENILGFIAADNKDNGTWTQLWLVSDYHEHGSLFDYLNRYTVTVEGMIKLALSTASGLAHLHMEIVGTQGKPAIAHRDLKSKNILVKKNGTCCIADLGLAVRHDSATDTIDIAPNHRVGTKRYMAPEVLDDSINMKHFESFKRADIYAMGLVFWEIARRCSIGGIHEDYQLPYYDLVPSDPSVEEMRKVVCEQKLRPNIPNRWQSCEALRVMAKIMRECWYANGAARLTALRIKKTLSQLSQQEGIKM
Put plainly: TR-FRET enzymatic ALK kinase assay, ALK5.

For orientation: IC50 means the point on the concentration scale where inhibition reaches its midpoint.

Chain of ALK6 (O00238 14-502): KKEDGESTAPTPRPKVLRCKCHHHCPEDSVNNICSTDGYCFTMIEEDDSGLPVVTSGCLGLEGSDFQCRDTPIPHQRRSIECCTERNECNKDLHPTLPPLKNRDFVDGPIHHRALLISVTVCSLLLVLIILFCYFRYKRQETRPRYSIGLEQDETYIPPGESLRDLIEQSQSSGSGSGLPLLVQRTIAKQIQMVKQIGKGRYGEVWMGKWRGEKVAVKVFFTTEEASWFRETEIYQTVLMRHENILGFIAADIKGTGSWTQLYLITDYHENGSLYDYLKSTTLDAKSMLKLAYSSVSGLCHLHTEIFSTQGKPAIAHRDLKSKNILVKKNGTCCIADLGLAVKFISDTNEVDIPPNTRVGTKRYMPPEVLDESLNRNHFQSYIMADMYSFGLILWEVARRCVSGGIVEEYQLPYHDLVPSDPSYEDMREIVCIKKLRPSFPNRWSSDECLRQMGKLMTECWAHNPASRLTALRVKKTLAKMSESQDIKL
Chain of ALK1 (P37023 22-503): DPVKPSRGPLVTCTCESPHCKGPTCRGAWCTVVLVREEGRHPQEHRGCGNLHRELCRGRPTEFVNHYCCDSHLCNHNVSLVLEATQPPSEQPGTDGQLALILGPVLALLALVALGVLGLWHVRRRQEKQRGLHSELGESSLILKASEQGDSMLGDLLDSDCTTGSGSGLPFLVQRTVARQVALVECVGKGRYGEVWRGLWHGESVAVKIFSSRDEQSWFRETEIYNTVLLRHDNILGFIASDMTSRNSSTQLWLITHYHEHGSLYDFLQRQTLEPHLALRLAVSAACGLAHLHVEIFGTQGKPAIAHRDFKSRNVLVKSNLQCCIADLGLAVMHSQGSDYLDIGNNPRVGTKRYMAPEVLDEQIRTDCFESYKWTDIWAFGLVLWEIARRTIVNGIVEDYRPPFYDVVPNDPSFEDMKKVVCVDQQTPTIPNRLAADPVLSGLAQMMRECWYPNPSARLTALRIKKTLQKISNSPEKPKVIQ
Chain of ALK3 (P36894 24-532): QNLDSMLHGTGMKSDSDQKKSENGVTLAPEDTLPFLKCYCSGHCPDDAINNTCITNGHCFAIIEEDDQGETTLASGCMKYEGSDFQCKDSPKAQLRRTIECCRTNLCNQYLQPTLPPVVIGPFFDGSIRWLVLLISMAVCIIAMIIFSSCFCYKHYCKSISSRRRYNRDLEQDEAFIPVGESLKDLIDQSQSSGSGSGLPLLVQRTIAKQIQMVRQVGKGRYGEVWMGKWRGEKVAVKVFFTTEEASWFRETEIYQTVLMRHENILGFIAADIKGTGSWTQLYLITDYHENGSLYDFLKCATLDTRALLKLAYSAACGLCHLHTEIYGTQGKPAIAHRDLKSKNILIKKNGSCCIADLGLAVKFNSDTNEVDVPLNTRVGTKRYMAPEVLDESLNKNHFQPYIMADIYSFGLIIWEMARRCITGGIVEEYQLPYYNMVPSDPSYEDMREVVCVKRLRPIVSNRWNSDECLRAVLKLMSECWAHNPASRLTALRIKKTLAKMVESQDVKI
Protocol for ALK1: (§1) Briefly, the ALKs enzymatic assay was initiated by dispense 2.5 μl enzyme in 1× kinase reaction buffer. The assay plate was then added with compounds followed by incubation at room temperature for 10 minutes. Then 2.5 μl/well substrate was added.
Protocol for ALK2: as §1
Protocol for ALK3: as §1
Protocol for ALK4: as §1
Protocol for ALK5: Six ALK kinase enzyme assays were developed for determination of compound activities on ALK1, ALK2, ALK3, ALK4, ALK5 and ALK6.
as §1
Protocol for ALK6: as §1

As to `C[C@@H](O)c1cccc(-c2cnn3cc(-c4ccc(CCN5CCC(O)C5)cc4)cnc23)c1` (stereo partly drawn) [Compound 155, 1-(4-(3-(3-((R)-1-hydroxyethyl)phenyl)pyrazolo[1,5-a]pyrimidin-6-yl)phenethyl)pyrrolidin-3-ol], the IC50 was over 10000 nM against ALK6; 140 nM at ALK2; over 10000 nM on ALK4; 7300 nM at ALK3; 820 nM on ALK1; over 10000 nM at ALK5.
Regarding `C[C@H](O)c1cccc(-c2cnn3cc(-c4ccc(OC5(CN6CCCC6)CC5)cc4)cnc23)c1` [Compound 198, (S)-1-(3-(6-(4-(1-(pyrrolidin-1-ylmethyl)cyclopropoxy)phenyl)pyrazolo[1,5-a]pyrimidin-3-yl)phenyl)ethanol], the IC50 is over 10000 nM at ALK6; 30 nM at ALK2; over 10000 nM on ALK4; 1200 nM on ALK3; 710 nM at ALK1; over 10000 nM against ALK5.
In the case of `NS(=O)(=O)c1ccc(-c2cnn3cc(-c4ccc(OC5(CN6CCCCC6)CC5)cc4)cnc23)c2ccccc12` [Compound 208, 4-(6-(4-(1-(piperidin-1-ylmethyl)cyclopropoxy)phenyl)pyrazolo[1,5-a]pyrimidin-3-yl)naphthalene-1-sulfonamide], the IC50 was over 10000 nM against ALK6; 15 nM against ALK2; over 10000 nM against ALK4; over 10000 nM on ALK3; 200 nM against ALK1; over 10000 nM against ALK5.
Turning to `CC(O)c1cccc(-c2cnn3cc(-c4ccc(C5CCCCN5)cc4)cnc23)c1` (stereo not drawn) [Compound 135, 1-(3-(6-(4-(piperidin-2-yl)phenyl)pyrazolo[1,5-a]pyrimidin-3-yl)phenyl)ethanol], the IC50 was over 10000 nM at ALK6; 150 nM against ALK2; over 10000 nM at ALK4; over 10000 nM at ALK3; 670 nM against ALK1; over 10000 nM against ALK5.
For `CC(O)c1cccc(-c2cnn3cc(-c4ccc(CCN5CCCC(O)C5)cc4)cnc23)c1` (stereo not drawn) [Compound 150, 1-(4-(3-(3-(1-hydroxyethyl)phenyl)pyrazolo[1,5-a]pyrimidin-6-yl)phenethyl)piperidin-3-ol], the IC50 against ALK6 is over 10000 nM; on ALK2, 140 nM; against ALK4 it was over 10000 nM; at ALK3 it was 4100 nM; at ALK1, 710 nM; against ALK5, over 10000 nM.
For the compound `C[C@H](O)c1cccc(-c2cnn3cc(-c4ccc(OC5(CN6C7CCC6CC7)CC5)cc4)cnc23)c1` [Compound 196, (S)-1-(3-(6-(4-(1-(7-azabicyclo[2.2.1]heptan-7-ylmethyl)cyclopropoxy)phenyl)pyrazolo[1,5-a]pyrimidin-3-yl)phenyl)ethanol], the IC50 is 8900 nM against ALK6; 24 nM against ALK2; over 10000 nM on ALK4; 2500 nM against ALK3; 310 nM on ALK1; over 10000 nM at ALK5.
For `NC(c1cccc(-c2cnn3cc(-c4ccc(OC5(CN6CCC(O)C6)CC5)cc4)cnc23)c1)C(F)(F)F` (stereo not drawn) [Compound 182, 1-((1-(4-(3-(3-(1-amino-2,2,2-trifluoroethyl)phenyl)pyrazolo[1,5-a]pyrimidin-6-yl)phenoxy)cyclopropyl)methyl)pyrrolidin-3-ol], the IC50 on ALK6 is over 10000 nM; against ALK2, 120 nM; on ALK4, over 10000 nM; against ALK3 it was 4900 nM; on ALK1 it was 2000 nM; against ALK5 it was over 10000 nM.
In the case of `CS(=O)(=O)c1cccc(-c2cnn3cc(-c4ccc(CCn5ccnc5)cc4)cnc23)c1` [Compound 133, 6-(4-(2-(1H-imidazol-1-yl)ethyl)phenyl)-3-(3-(methylsulfonyl)phenyl)pyrazolo[1,5-a]pyrimidine], the IC50 is over 10000 nM at ALK6; 230 nM on ALK2; over 10000 nM on ALK4; over 10000 nM against ALK3; 670 nM at ALK1; over 10000 nM against ALK5.
`CC(O)c1cccc(-c2cnn3cc(-c4ccc(CCN5CCC(O)C5)cc4)cnc23)c1` (stereo not drawn) [Compound 148, 1-(4-(3-(3-(1-hydroxyethyl)phenyl)pyrazolo[1,5-a]pyrimidin-6-yl)phenethyl)pyrrolidin-3-ol]: the IC50 on ALK6 is over 10000 nM; on ALK2, 150 nM; on ALK4, over 10000 nM; against ALK3, 6400 nM; against ALK1, 790 nM; against ALK5, over 10000 nM.
As for `CS(=O)(=O)c1cccc(-c2cnn3cc(-c4ccc(C5(N)CC5)cc4)cnc23)c1` [Compound 190, 1-(4-(3-(3-(methylsulfonyl)phenyl)pyrazolo[1,5-a]pyrimidin-6-yl)phenyl)cyclopropanamine], the IC50 against ALK6 was over 10000 nM; on ALK2, 44 nM; against ALK4, over 10000 nM; on ALK3, 2500 nM; against ALK1 it was 460 nM; against ALK5 it was over 10000 nM.
On to `CS(=O)(=O)c1cc(-c2cnn3cc(-c4ccc(CCN5CCCCC5)cc4)cnc23)cc(C(F)(F)F)c1` [Compound 172, 3-(3-(methylsulfonyl)-5-(trifluoromethyl)phenyl)-6-(4-(2-(piperidin-1-yl)ethyl)phenyl)pyrazolo[1,5-a]pyrimidine], for which the IC50 against ALK6 was over 10000 nM; against ALK2, 1200 nM; at ALK4, over 10000 nM; against ALK3, over 10000 nM; at ALK1 it was over 10000 nM; against ALK5, over 10000 nM.
As for `C[S+](=O)([O-])c1cccc(-c2cnn3cc(-c4ccc(OC5(CN6CCC7(CC6)CNC7)CC5)cc4)cnc23)c1` [Compound 184, 6-(4-(1-(2,7-diazaspiro[3.5]nonan-7-ylmethyl)cyclopropoxy)phenyl)-3-(3-(methylsulfonyl)phenyl)pyrazolo[1,5-a]pyrimidine], the IC50 at ALK6 is over 10000 nM; against ALK2 it was 23 nM; at ALK4 it was over 10000 nM; against ALK3 it was 2300 nM; on ALK1, 320 nM; against ALK5, over 10000 nM.
Take `C[C@@H](O)c1cccc(-c2cnn3cc(-c4ccc(CCN5CCCC(O)C5)cc4)cnc23)c1` (stereo partly drawn) [Compound 157]: the IC50 against ALK6 was over 10000 nM; at ALK2 it was 120 nM; on ALK4, over 10000 nM; against ALK3 it was 5900 nM; on ALK1, 760 nM; at ALK5 it was over 10000 nM.
On to `CC1CCN(c2ccc(-c3cnc4c(-c5ccc(S(N)(=O)=O)c6ccccc56)cnn4c3)cn2)CC1` [Compound 47, 4-(6-(6-(4-methylpiperidin-1-yl)pyridin-3-yl)pyrazolo[1,5-a]pyrimidin-3-yl)naphthalene-1-sulfonamide], for which the IC50 against ALK6 was over 10000 nM; against ALK2, 2900 nM; at ALK4, over 10000 nM; against ALK3 it was over 10000 nM; against ALK1, 5700 nM; on ALK5 it was over 10000 nM.
With `CC(O)c1cccc(-c2cnn3cc(-c4ccc(OC5(CN6CCOCC6)CC5)cc4)cnc23)c1` (stereo not drawn) [Compound 177, 1-(3-(6-(4-(1-(morpholinomethyl)cyclopropoxy)phenyl)pyrazolo[1,5-a]pyrimidin-3-yl)phenyl)ethanol], the IC50 against ALK6 was over 10000 nM; at ALK2, 45 nM; at ALK4, over 10000 nM; at ALK3, 890 nM; against ALK1, 770 nM; on ALK5, over 10000 nM.
